Test results reported in patent EP0394553A2, “Use of fluorine containing pyridone carboxylic acid derivatives for preparing a medicament for the treatment of HIV infections” (DAIICHI PHARMACEUTICAL CO., LTD., priority 1989, dated 1990).

System: CEM cells
Experiment: Cytotoxicity in uninfected CEM cells (trypan blue staining)
Details: at concentrations not exceeding 10 mcg/ml
Protocol: Human T cell-derived, T4 antigen-positive CEM cells (provided by the Institut Pasteur, France) were used as host cells of HIV. Cell culture was carried out in a carbon dioxide-containing atmosphere in an incubator maintained at 37°C according to a conventional method [cf. […] The culture supernatant (5×10⁶ TCID₅₀/ml) obtained by subjecting CEM cells to HIV (LAV 1) infection and stored at -70°C was used as the HIV source.
The cell culture medium (10 ml) placed in a plastic culture flask (25 cm²) was inoculated with CEM cells to a cell density of 2.5×10⁵ cells/ml and incubation was performed for 3 days. Then, the culture was transferred to a 15-ml plastic centrifuge tube and centrifuged at 1,000 revolutions per minute for 5 minutes for medium removal. A fresh portion of the medium was added to the cells, the cell density being adjusted to 5.0×10⁵ cells/ml. The following mixture (1.0 ml) containing the cell suspension prepared in the above manner was incubated in a 24-well plastic culture plate for 4 days:
The cells in each well were then suspended uniformly in the medium by pipetting and a 0.5-ml portion of the suspension was separated.
A fresh 2-ml portion of the test substance-free medium was added to the remaining cell suspension (0.5 ml) and, after a further 3-day incubation, a cell suspension was produced in the same manner and a 0.5-ml portion thereof was removed.
The cell suspensions collected in the above manner were subjected to viable cell count and viable cell percentage determinations by trypan blue staining.

SMILES | cytotoxicity
CC1COc2c(N3CCN(C)CC3)c(F)cc3c(=O)c(C(=O)O)cn1c23 (racemic) [OFLX, (±)-9-fluoro-3-methyl-10-(4-methyl-1-piperazinyl)-7-oxo-2,3-dihydro-7H-pyrido[1,2,3-de][1,4]benzoxazine-6-carboxylic acid] | no cytotoxicity
CCn1cc(C(=O)O)c(=O)c2cc(F)c(N3CCNCC3)cc21 [NFLX, 1-ethyl-6-fluoro-1,4-dihydro-4-oxo-7-(1-piperazinyl)-3-quinolinecarboxylic acid] | no cytotoxicity
C[C@H]1COc2c(N3CCN(C)CC3)c(F)cc3c(=O)c(C(=O)O)cn1c23 [DR-3355, (-)-(S)-9-fluoro-2,3-dihydro-3-methyl-10-(4-methyl-1-piperazinyl)-7-oxo-7H-pyrido[1,2,3-de][1,4]benzoxazine-6-carboxylic acid hemihydrate] | no cytotoxicity
